Measurements reported in patent US20150313215A1, “PESTICIDAL MIXTURES” (priority 2010, published 2015).

Tests used:
Assay type in all cases: in vivo
[1] = tested on: Phakopsora pachyrhizi; test: Greenhouse experiments, control of soybean rust on soybean, foliar spray; conditions: Halo methylene benzonorbornene amide 1 gai/ha
Procedure: Control of Phakopsora pachyrhizi on Soybean
Greenhouse experiments were conducted to evaluate the ability of cis-jasmone to enhance fungicidal activity of a single agrochemical active ingredient and also of a mixture of two agrochemical active ingredients. A fungicidally active ingredient, N-[(1RS,4SR)-9-(Dichloromethylidene)-1,2,3,4-tetrahydro-1,4-methanonaphthalen-5-yl]-3-(difluoromethyl)-1-methyl-1H-pyrazole-4-carboxamide (“halo methylene benzonorbornene amide”), alone or in admixture with another fungicidally active ingredient, azoxystrobin, controls soybean rust when applied as a foliar spray. See data in Table 7.

[2] = tested on: Two Spotted Spider Mite Tetranychus urticae; test: Field trial, control of two spotted spider mite on kidney beans; conditions: 2 foliar sprays at 10 day intervals, 11 evaluation dates Day 3 to Day 35
Procedure: Control of Two Spotted Spider Mite Tetranychus urticae on Kidney Beans
A field trial using a plot size of 20 m^2, 3 replicates and 2 foliar sprays at 500 I/ha at 10 day intervals was assessed for average mite population/20 leaves/plot from 11 evaluation dates from Day 3 to Day 35 after treatment.

[3] = tested on: Currant-Lettuce Aphid Nasonova ribis-nigri; test: Field trial, control of currant-lettuce aphid on lettuce (Example 2); conditions: 1 foliar spray; for Average Number of Aphids per Plant: apterous aphids
Procedure: (§1) Control of Currant-Lettuce Aphid Nasonova ribis-nigri on Lettuce
A field trial using plots of 20 plants, 3 replicates and 1 foliar spray was assessed for number of apterous aphids/plant and number of infected plants on Day 4, Day 8, Day 11 and Day 14 after treatment. Data for untreated control are an average of four control plots (each 3 replicates; 240 total plants) which were interspersed within the treated plots.

[4] = tested on: Currant-Lettuce Aphid Nasonova ribis-nigri; test: Field trial, control of currant-lettuce aphid on lettuce (Example 3); conditions: 1 foliar spray, apterous aphids
Procedure: as §1
A field trial using plots of 20 plants, 4 replicates and 1 foliar spray was assessed for number of apterous aphids/plant on Day 3, Day 7 and Day 10 after treatment.

[5] = tested on: Thrips Thrips Tabaci; test: Field trial, control of thrips on cotton; conditions: for Average Number of Thrips per Plant: 1 foliar spray, adult thrips; for average number of thrips per plant observed across all days monitored: Day 1 to Day 22
Procedure: Control of Thrips Thrips Tabaci on Cotton
A field trial using 21 m^2 plots, 3 replicates and 1 foliar spray was assessed for number of adult thrips/plant on Day 1, Day 3, Day 5, Day 8, Day 10, Day 15, and Day 22 after treatment. Data for untreated control are an average of four control plots.

[6] = tested on: Aphid Aphis gossypii; test: Field trial, control of aphid on cotton (Example 5); conditions: for Average Number of Aphids per Plant: 1 foliar spray, apterous adults; for average number of aphids per plant observed across all days monitored: Day 1 to Day 22
Procedure: (§2) Control of Aphid Aphis gossypii on Cotton
A field trial using 21 m^2 plots, 3 replicates and 1 foliar spray was assessed for number of apterous adults/plant on Day 1, Day 3, Day 5, Day 8, Day 10, Day 15, and Day 22 after treatment. Data for untreated control are an average of four control plots.

[7] = tested on: Aphid Aphis gossypii; test: Field trial, control of aphid on cotton (Example 6); conditions: 1 foliar spray, 8 evaluation dates from Day 3 to Day 29
Procedure: as §2
A field trial using plots of 20 plants, 3 replicates and 1 foliar spray was assessed for number of alate and apterous aphids/plant from 8 evaluation dates from Day 3 to Day 29 after treatment. Data for untreated control are an average of four control plots (each 3 replicates; 240 total plants) which were interspersed within the treated plots.

[8] = Cis-jasmone 50 gai/hl, Day 4 after treatment
[9] = Cis-jasmone 50 gai/hl, Day 8 after treatment
[10] = Cis-jasmone 50 gai/hl, Day 11 after treatment
[11] = Cis-jasmone 50 gai/hl, Day 14 after treatment
[12] = Cis-jasmone 50 gai/hl, Day 1 after treatment
[13] = Cis-jasmone 50 gai/hl, Day 3 after treatment
[14] = Cis-jasmone 50 gai/hl, Day 5 after treatment
[15] = Cis-jasmone 50 gai/hl, Day 10 after treatment
[16] = Cis-jasmone 50 gai/hl, Day 15 after treatment
[17] = Cis-jasmone 50 gai/hl, Day 22 after treatment
[18] = Thiamethoxam 30 gai/hl, Day 4 after treatment
[19] = Thiamethoxam 30 gai/hl, Day 8 after treatment
[20] = Thiamethoxam 30 gai/hl, Day 11 after treatment
[21] = Thiamethoxam 30 gai/hl, Day 14 after treatment
[22] = Thiamethoxam 30 gai/hl, Day 1 after treatment
[23] = Thiamethoxam 30 gai/hl, Day 3 after treatment
[24] = Thiamethoxam 30 gai/hl, Day 5 after treatment
[25] = Thiamethoxam 30 gai/hl, Day 10 after treatment
[26] = Thiamethoxam 30 gai/hl, Day 15 after treatment
[27] = Thiamethoxam 30 gai/hl, Day 22 after treatment

Cn1cc(C(=O)Nc2cccc3c2[C@@H]2CC[C@H]3C2=C(Cl)Cl)c(C(F)F)n1 (racemic) [Halo methylene benzonorbornene amide, N-[(1RS,4SR)-9-(Dichloromethylidene)-1,2,3,4-tetrahydro-1,4-methanonaphthalen-5-yl]-3-(difluoromethyl)-1-methyl-1H-pyrazole-4-carboxamide]
Percentage Fungicidal Activity [1]: 20%

CC/C=C\CC1=C(C)CCC1=O [Cis-jasmone, cis-jasmone]
% pest control versus untreated check ([2]; Cis-jasmone 5 gai/hl, mite population/20 leaves/plot): 51.00%
Number of Infested Plants (out of 60) [3, 8]: 21
Average Number of Aphids per Plant [3, 8]: 0.57
Number of Infested Plants (out of 60) [3, 9]: 48
Average Number of Aphids per Plant [3, 9]: 3.28
Number of Infested Plants (out of 60) [3, 10]: 59
Average Number of Aphids per Plant [3, 10]: 8.02
Number of Infested Plants (out of 60) [3, 11]: 60
Average Number of Aphids per Plant [3, 11]: 19.25
Average Number of Aphids per Plant ([4]; Cis-jasmone at 100 gai/hl, Day 3 after treatment): 2.963
Average Number of Aphids per Plant ([4]; Cis-jasmone at 100 gai/hl, Day 7 after treatment): 6.563
Average Number of Aphids per Plant ([4]; Cis-jasmone at 100 gai/hl, Day 10 after treatment): 12.375
Average Number of Thrips per Plant [5, 12]: 24
average number of thrips per plant observed across all days monitored ([5]; Cis-jasmone 50 gai/hl): 39
Average Number of Thrips per Plant [5, 13]: 19
Average Number of Thrips per Plant [5, 14]: 28
Average Number of Thrips per Plant [5, 9]: 48
Average Number of Thrips per Plant [5, 15]: 58
Average Number of Thrips per Plant [5, 16]: 65
Average Number of Thrips per Plant [5, 17]: 32
Average Number of Aphids per Plant [6, 12]: 40
average number of aphids per plant observed across all days monitored ([6]; Cis-jasmone 50 gai/hl): 61
Average Number of Aphids per Plant [6, 13]: 33
Average Number of Aphids per Plant [6, 14]: 45
Average Number of Aphids per Plant [6, 9]: 126
Average Number of Aphids per Plant [6, 15]: 139
Average Number of Aphids per Plant [6, 16]: 27
Average Number of Aphids per Plant [6, 17]: 14
Average Number of Aphids/Plant, Alate ([7]; Cis-Jasmone 50 gai/hl): 18
Average Number of Aphids/Plant, Apterous ([7]; Cis-Jasmone 50 gai/hl): 260

CNC(=O)c1cc(C#N)cc(C)c1NC(=O)c1cc(Br)nn1-c1ncccc1Cl [Cyantraniliprole, cyantraniliprole]
Average Number of Aphids/Plant, Alate ([7]; Cyantraniliprole 100 gai/hl): 17
Average Number of Aphids/Plant, Apterous ([7]; Cyantraniliprole 100 gai/hl): 235
Average Number of Aphids/Plant, Alate ([7]; Cyantraniliprole 200 gai/hl): 16
Average Number of Aphids/Plant, Apterous ([7]; Cyantraniliprole 200 gai/hl): 179

CN1COCN(Cc2cnc(Cl)s2)/C1=N\[N+](=O)[O-] [Thiamethoxam, thiamethoxam]
Number of Infested Plants (out of 60) [3, 18]: 1
Average Number of Aphids per Plant [3, 18]: 0.05
Number of Infested Plants (out of 60) [3, 19]: 3
Average Number of Aphids per Plant [3, 19]: 0.12
Number of Infested Plants (out of 60) [3, 20]: 15
Average Number of Aphids per Plant [3, 20]: 1
Number of Infested Plants (out of 60) [3, 21]: 22
Average Number of Aphids per Plant [3, 21]: 2.25
Average Number of Aphids per Plant ([4]; Thiamethoxam at 25 gai/hl, Day 3 after treatment): 0.063
Average Number of Aphids per Plant ([4]; Thiamethoxam at 25 gai/hl, Day 7 after treatment): 0.788
Average Number of Aphids per Plant ([4]; Thiamethoxam at 25 gai/hl, Day 10 after treatment): 4.813
Average Number of Thrips per Plant [5, 22]: 31
average number of thrips per plant observed across all days monitored ([5]; Thiamethoxam 30 gai/hl): 28
Average Number of Thrips per Plant [5, 23]: 17
Average Number of Thrips per Plant [5, 24]: 27
Average Number of Thrips per Plant [5, 19]: 15
Average Number of Thrips per Plant [5, 25]: 27
Average Number of Thrips per Plant [5, 26]: 52
Average Number of Thrips per Plant [5, 27]: 29
Average Number of Aphids per Plant [6, 22]: 41
average number of aphids per plant observed across all days monitored ([6]; Thiamethoxam 30 gai/hl): 25
Average Number of Aphids per Plant [6, 23]: 20
Average Number of Aphids per Plant [6, 24]: 23
Average Number of Aphids per Plant [6, 19]: 26
Average Number of Aphids per Plant [6, 25]: 33
Average Number of Aphids per Plant [6, 26]: 20
Average Number of Aphids per Plant [6, 27]: 10

abamectin
% pest control versus untreated check ([2]; Abamectin 0.45 gai/hl): 41.22%
% pest control versus untreated check ([2]; Abamectin 0.9 g active ingredient/hl): 56.56%
